Experimental findings from article PMC9240326, “BacPROTACs mediate targeted protein degradation in bacteria” (Cell, 2022) are described below.

The target in data set [1] is B. subtilis ClpCP protease (Bacillus subtilis, UniProt P37571). It counts as biochemical.
Another data set has as its target ClpC1NTD (Mycolicibacterium smegmatis, UniProt A0R574). Put plainly: biochemical. The class given is binding, Mycobacterium smegmatis.
The target in the next data set is BRDTBD1 (Homo sapiens, UniProt Q58F21). Briefly: Wes analysis of BRDTBD1 levels in M. smegmatis. It counts as cell-based. To be noted: 30 min of incubation, relative to DMSO.
The nature of data set [2]: Solubility in aqueous solutions (remark in ITC method). It counts as physicochemical. On the technique in general: Isothermal titration calorimetry measures the heat released or taken up as one component is titrated into another.

Where a SMILES comes first, the peptide text is derived from it. [ ]: non-standard residue; d: D form. Phe(βR-OMe) = CO[C@H](c1ccccc1)[C@H](N)C(=O)O; NMeL = CN[C@@H](CC(C)C)C(=O)O; NMeK = CN[C@@H](CCCCN)C(=O)O

By Kd is commonly meant the free concentration of one partner at which half of the binding sites on the other are occupied at equilibrium, for simple one-to-one binding. Read a high Kd as weaker binding.

Chain of B. subtilis ClpCP protease (P80244 whole entry): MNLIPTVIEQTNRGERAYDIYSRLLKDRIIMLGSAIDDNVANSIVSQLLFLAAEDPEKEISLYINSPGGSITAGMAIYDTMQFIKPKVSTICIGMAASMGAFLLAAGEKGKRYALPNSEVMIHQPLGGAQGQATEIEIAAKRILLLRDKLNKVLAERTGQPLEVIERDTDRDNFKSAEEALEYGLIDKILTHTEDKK
Chain of B. subtilis ClpCP protease (P37571 whole entry): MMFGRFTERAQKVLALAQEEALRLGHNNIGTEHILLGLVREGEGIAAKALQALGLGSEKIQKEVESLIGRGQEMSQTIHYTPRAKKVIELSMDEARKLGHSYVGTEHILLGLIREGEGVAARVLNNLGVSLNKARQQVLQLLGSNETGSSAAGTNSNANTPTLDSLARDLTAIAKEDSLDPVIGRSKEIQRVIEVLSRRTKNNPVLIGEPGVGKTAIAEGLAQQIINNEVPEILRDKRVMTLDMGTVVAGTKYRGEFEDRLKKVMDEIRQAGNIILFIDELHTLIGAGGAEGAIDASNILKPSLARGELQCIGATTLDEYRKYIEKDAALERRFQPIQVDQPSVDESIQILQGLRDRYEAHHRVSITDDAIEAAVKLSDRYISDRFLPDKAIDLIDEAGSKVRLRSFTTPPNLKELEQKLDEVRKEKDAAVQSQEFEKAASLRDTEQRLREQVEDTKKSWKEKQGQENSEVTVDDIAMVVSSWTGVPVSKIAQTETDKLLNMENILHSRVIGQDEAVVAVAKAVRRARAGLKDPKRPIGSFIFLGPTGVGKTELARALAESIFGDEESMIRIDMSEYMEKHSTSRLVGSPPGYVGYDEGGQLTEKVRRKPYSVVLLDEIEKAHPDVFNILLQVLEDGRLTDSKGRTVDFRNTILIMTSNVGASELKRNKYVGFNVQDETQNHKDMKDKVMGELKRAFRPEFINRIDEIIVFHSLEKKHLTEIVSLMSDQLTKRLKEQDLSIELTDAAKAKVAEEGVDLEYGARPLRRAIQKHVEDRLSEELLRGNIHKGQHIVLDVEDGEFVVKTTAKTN
Chain of ClpC1NTD (A0R574 1-148 limits assumed): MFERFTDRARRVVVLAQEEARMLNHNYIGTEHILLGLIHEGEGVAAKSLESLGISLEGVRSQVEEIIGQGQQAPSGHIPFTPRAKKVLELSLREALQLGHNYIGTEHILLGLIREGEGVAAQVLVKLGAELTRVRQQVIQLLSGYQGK

In the case of `CC(=O)NC(CCCNC(=N)N)C(=O)NCCOCCOCCC(=O)NCCOCCOCCC(=O)NCCOCCOCCC(=O)NC(CCCCNC(=O)CCCCC1SCC2NC(=O)NC21)C(N)=O` (stereo not shown) [BacPROTAC-1c], the “mSA-Kre degradation by ClpCP, BacPROTAC-1 analogs” value in data set [1] is reported as “did not induce substrate degradation”.
At ClpC1NTD, `CC[C@H](C)[C@@H]1NC(=O)[C@H](CC(C)C)N(C)C(=O)[C@H](C(C)C)NC(=O)[C@H]([C@H](OC)c2ccccc2)NC(=O)[C@H](C)NC(=O)[C@H](CCCCN)N(C)C(=O)[C@H](Cc2c[nH]c3ccccc23)NC1=O` [sCym-1] (cyclo(W[NMeK]A[Phe(βR-OMe)]V[NMeL]I)) came in with a Kd of 810 nM. On BRDTBD1, the “BRDTBD1 levels in M. smegmatis (Wes)” value is “did not significantly alter BRDTBD1 levels”. For the same compound, the “Solubility in aqueous solutions” value in data set [2] is “low solubility”.
